This note sets out measurements from PubChem BioAssay AID1417 (Emory University Molecular Libraries Screening Center, 2008).

Bounds are passed on as bounds.

This experiment deals with Induced myeloid leukemia cell differentiation protein Mcl-1 (Homo sapiens) (UniProt Q07820). As to the kind of experiment: Mcl-1 Noxa peptide disruption concentration-response – biochemical, TR-FRET, dose response (AID 1417). The note with it: Mcl-1/Noxa peptide interaction, cell-free TR-FRET (terbium/rhodamine), 2 h; measured here: absolute IC50.
Sequence of Induced myeloid leukemia cell differentiation protein Mcl-1 (Homo sapiens) (Q07820 whole entry, looked up): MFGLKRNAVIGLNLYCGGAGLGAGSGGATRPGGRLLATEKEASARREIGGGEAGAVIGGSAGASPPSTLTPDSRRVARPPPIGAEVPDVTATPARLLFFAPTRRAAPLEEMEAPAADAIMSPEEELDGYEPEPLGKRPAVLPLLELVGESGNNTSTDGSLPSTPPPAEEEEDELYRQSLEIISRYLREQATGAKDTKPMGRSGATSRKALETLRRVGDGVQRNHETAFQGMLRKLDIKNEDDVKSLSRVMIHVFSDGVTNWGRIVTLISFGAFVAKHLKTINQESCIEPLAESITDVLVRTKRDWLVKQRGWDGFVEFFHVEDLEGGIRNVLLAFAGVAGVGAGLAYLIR

`CCOC(=O)c1cc(-c2ccco2)nc2c1c(C)nn2-c1cccc(Cl)c1`: the half-maximal inhibitory concentration (IC50) (as a rule, the concentration at which inhibition is half-maximal) is 2.36 µM. For `CCOC(=O)c1cc(-c2ccc(/C=C3/C(=O)NC(=O)C(C#N)=C3C)o2)ccc1Cl`, the IC50 was under 0.4 µM.

On to `COc1ccccc1/C=c1\sc2nc(-c3ccco3)nn2c1=O`, for which the IC50 was 8.18 µM. `COc1cc(/C=N/NC(=O)c2ccc([N+](=O)[O-])cc2Cl)cc(Br)c1O` showed a concentration for half-maximal inhibition (IC50) of over 54 µM. With `O=C(O)c1ccc(N/N=C/C2=C(N3CCOCC3)C(=C\c3ccccc3)/CC2)cc1` the figure was 2.02 µM; with `O=C(NCCc1ccccc1)c1ccc2nc(-c3ccco3)c(-c3ccco3)nc2c1`, 2 µM; with `CCOC(=O)c1c(-c2ccc(C)cc2)csc1NC(=O)/C(C#N)=C/c1ccc(O)c(OC)c1`, under 0.4 µM.

The molecule `COc1ccc(N=C2NC(=O)/C(=C\C=C\c3ccco3)S2)cc1` came in with a 50% inhibitory concentration (IC50) of 1.48 µM. Turning to `Oc1ccc(-c2cn3c(n2)SCC3)cc1O`, the IC50 stood at 1.94 µM. With `CC(/C=C1\SC(=S)N(c2ccc(C(=O)O)cc2)C1=O)=C\c1ccccc1` the figure was 2.81 µM; with `Cn1c(=O)c(C(=O)COC(=O)c2cc(-c3ccco3)nc3ccccc23)c(N)n(Cc2ccccc2)c1=O`, under 0.4 µM. Under `Cc1cc(C)c(S(=O)(=O)NCc2cn3c(C)csc3n2)cc1C` stands over 54 µM; under `COc1ccc(Cl)c(N2CCN(CCCNC(=O)Nc3ccc(C)cc3)CC2)c1`, 6.02 µM; under `O=[N+]([O-])c1cccc(S(=O)(=O)Nc2nc3ccccc3nc2Nc2cccc(S(=O)(=O)N3CCCCC3)c2)c1`, 3.75 µM. Under `COc1cc(C(=O)Nc2ccc3c(c2)C(=O)c2ccccc2C3=O)cc(OC)c1OC` stands 3.97 µM. In turn, `C=C(C)C(=O)Nc1cccc(C2=NOC3(C2)C[C@H](C(N)=O)N(C(=O)C(c2ccccc2)c2ccccc2)C3)c1` (stereo not given in full) showed a concentration for half-maximal inhibition (IC50) of 4.43 µM. As for `CCCCOC(=O)Nc1ccc(N(C)C)cc1`, the half-inhibitory concentration (IC50) came out at 52.5 µM. Under `COc1cc(SSc2cc(OC)cc([N+](=O)[O-])c2N)c(N)c([N+](=O)[O-])c1` stands under 0.4 µM; under `O=C(O)COc1ccc(/C=N/NC(=O)c2ccc(-c3csc(Nc4ccc(Cl)cc4)n3)cc2)cc1`, 0.784 µM; under `CN(C)S(=O)(=O)c1cccc(-c2nn(-c3ccccc3)cc2/C=C2\SC(=S)NC2=O)c1`, 0.48 µM. The molecule `O=C(/C=C/c1cccnc1)c1ccc(O)cc1` came in with an IC50 of over 54 µM. With `COc1ccc(C2=CC(=O)C=CC2=O)cc1` the figure was under 0.4 µM; with `CCCCn1c(NCc2ccc(N(C)C)cc2)nc2ccccc21`, 1.14 µM. With `CC1(c2ccccc2)CC(C)(C)N2C(=O)/C(=C3\SC(=S)NC3=O)c3cccc1c32` (stereo not given) the figure was under 0.4 µM; with `O=[N+]([O-])C(=c1ccc2c(c1)N1C3=C(CCCC3)CC3CCCCC31N=2)[N+](=O)[O-]` (stereo not given), under 0.4 µM; with `O=S(=O)(Cc1cc(Cl)nc(-c2ccncc2)n1)c1ccccc1`, 24.8 µM. With `C=CCn1c(N2CCCCCC2)nc2c1c(=O)n(C)c(=O)n2C` the figure was over 54 µM.

Molecule `Cc1ccc2c(c1)c1ccc3c(c1n2C)C(=O)C=CC3=O` displayed an IC50 of under 0.4 µM. Under `COc1ccc(/C=C2\C(=O)NC(=S)N2C(=O)c2ccc(C)cc2)cc1` stands over 54 µM; under `Cc1ccc(-c2nc3c(c(=O)[nH]c(=O)n3Cc3ccccc3)n2C)o1`, under 0.4 µM; under `Cc1ccc2c(c1C)NC(C(=O)O)C1CC=CC21` (stereo not given), 1.07 µM. With `CCOc1ccccc1NC(=O)/C=C/C(N)=O` the figure was over 54 µM; with `Cc1cc(C(=O)N/N=C/c2cc(N=Nc3ccccc3)ccc2O)n[nH]1`, 10.9 µM. `CC1=Nc2cccc3cccc(c23)N1` displayed an IC50 of 2.63 µM. `CN(C)c1ccc(NC(=O)c2ccc([N+](=O)[O-])cc2Cl)cc1` displayed an IC50 of over 54 µM. In turn, `COC/C=C/C1=CC2=CC(=O)C(C)(OC(=O)c3ccco3)C(=O)C2=CO1` (stereo not given) displayed a half-inhibitory concentration (IC50) of 2.78 µM. With `COc1ccc2nc(NC(=O)Nc3cccc4ccccc34)sc2c1` the figure was over 54 µM. Under `Cc1cc2nc(/C=C/c3nc4cc(C)c(C)cc4[nH]3)[nH]c2cc1C` stands 4.54 µM; under `COc1ccc(NC(=O)c2cc3cccc(OC)c3oc2=Nc2ccc(C(=O)O)cc2)cc1OC`, 2.38 µM. Under `CNc1ccc(Br)cc(C(=O)/C=C/c2cccc(OC)c2)c1=O` stands 4.9 µM. In turn, `O=C(CSc1n[nH]c(=O)[nH]c1=O)Nc1ccc2c(c1)C(=O)c1ccccc1C2=O` displayed a concentration for half-maximal inhibition (IC50) of over 54 µM. `O=C1NC(=S)N/C1=C/c1cccn1-c1ccc([N+](=O)[O-])cc1`: the IC50 was over 54 µM. With `O=C(O)c1cccc(NC2=C(Cl)C(=O)c3ccccc3C2=O)c1` the figure was 3.79 µM; with `COc1cc(/C=N/NC(=O)c2ccc(CN3C(=O)c4cccc5cccc3c45)cc2)cc(OC)c1O`, 3.43 µM.

Regarding `COC(=O)c1cc(O)cc(OC)c1Oc1cc(C)cc(O)c1C(=O)O`, the 50% inhibitory concentration (IC50) was over 54 µM. Consider `CC(/C=N\Nc1nnc2c(n1)[nH]c1c(C)cccc12)=C\c1ccco1`, for which the half-inhibitory concentration (IC50) turned out to be 3.57 µM. With `COc1cc(/C=N/Nc2nc(C)nc3c2cnn3-c2ccccc2)ccc1O` the figure was 13.3 µM. In the case of `Cc1ccc(C(=O)Nc2ccc(N3CCCC3)cc2)c(C)c1`, the IC50 was over 54 µM. With `Cc1ccc(-c2c3c([nH]c(=S)c2C#N)CCCC3)o1` the figure was 1.17 µM; with `O=C(NC1CCCCC1)c1sc(=S)n2c1[nH]c(=O)c1ccccc12`, 15.9 µM; with `Cc1cc(C)c2oc(C(=O)Nc3ccc(S(=O)(=O)Nc4nccs4)cc3)cc(=O)c2c1`, 4.58 µM. Under `Oc1cc2c(cc1C(c1ccc(Cl)c(Cl)c1)N1CCCC1)OCO2` (stereo not given) stands over 54 µM; under `CCOC(=O)C1=C(C)NC2=C(C(=O)CC(C)(C)C2)C1c1ccc2c(c1)CCCN2C` (stereo not given), over 54 µM. With `COc1ccc(/C=C2/SC(=S)N(c3ccc(S(=O)(=O)Nc4nccs4)cc3)C2=O)cc1` the figure was 0.999 µM. Take `O=C(N/N=C/c1cccc(F)c1)c1cc(-c2ccco2)nc2ccccc12`: the 50% inhibitory concentration (IC50) is under 0.4 µM. With `COc1ccc(/C=N/NC(=O)c2ccc(O)cc2O)cc1CSc1ccccn1` the figure was 2.48 µM; with `Cc1cc(=O)n2[nH]c(-c3ccsc3-n3c(C)ccc3C)cc2n1`, 2.89 µM; with `CCC(C)N1C(=O)/C(=C/c2ccc3c(c2)CCN3CCCCl)C(=O)NC1=S` (stereo not given), 1.92 µM. Under `O=C(O)COc1ccccc1C(Nc1cccnc1)c1cc(Cl)c2cccnc2c1O` (stereo not given) stands under 0.4 µM.

`O=[N+]([O-])c1cc(Br)c(O)c(/C=N/Nc2nc3ccccc3s2)c1` gave an IC50 of under 0.4 µM. Under `COc1ccc(-c2ccc(/C=C3/C(=N)N4C=CSC4=NC3=O)o2)c([N+](=O)[O-])c1` stands 1.66 µM; under `COc1cc(/C=N/Nc2nnc3c(n2)[nH]c2ccccc23)ccc1O`, 5.83 µM; under `COc1ccc(-c2csc(/C(C#N)=C\c3ccc(O)c([N+](=O)[O-])c3)n2)cc1OC`, 4.75 µM. Under `O=C(O)CCCN1C(=O)/C(=C\c2ccc(-c3nc4ccccc4s3)o2)SC1=S` stands 1.12 µM. Under `O=C(N/N=C/c1ccco1)c1cccc(N2Cc3ccccc3C2)c1` stands 3.5 µM; under `CCn1c(C)nc2cc(C(=O)N/N=C/c3ccc(O)c(O)c3O)ccc21`, under 0.4 µM. In the case of `COc1cc(/C=N/NC(=O)C2c3ccccc3Oc3ccccc32)ccc1O`, the 50% inhibitory concentration (IC50) amounted to 6.68 µM. With `O=C(NCCCCc1ccccc1)C1CC(c2ccccc2[N+](=O)[O-])=NO1` (stereo not given) the figure was over 54 µM; with `O=C1NC(=Nc2ccccc2)S/C1=C\C=C\c1ccco1`, under 0.4 µM.

For `Cc1ccc(C2C(/C=C3/SC(=S)NC3=O)=C(c3cccs3)Oc3ccccc32)cc1` (stereo not given), the IC50 is under 0.4 µM. Under `COc1cccc2c(C)c(C(=O)O)[nH]c12` stands 2 µM; under `COC1=C/C(=C/c2c(N)n3nc(-c4ccc(C)cc4)sc3nc2=O)C=CC1=O`, 2.82 µM; under `CC[C@H](C)NC(=O)c1ccc(Cn2c(=S)[nH]c3c([nH]c4ccc(OC)cc43)c2=O)cc1`, 6.17 µM.

In turn, `CN(C)c1ncc(C2=C(Cl)C(=O)C(N3CCCC3)=C(Cl)C2=O)s1` gave a half-inhibitory concentration (IC50) of under 0.4 µM. As to `CC(C)c1nc2sc3c(=O)[nH]c(=S)[nH]c3c2c2c1CCC2`, the IC50 is 7.39 µM.

The molecule `Cc1ccc(-n2cccc2/C=C2/C(=N)N3C(=NC2=O)SN=C3S(C)(=O)=O)cc1` returned a half-inhibitory concentration (IC50) of 5.4 µM. Under `COc1ccc(N2CCC(CNC(=O)Nc3ccccc3)C2)cc1` (stereo not given) stands under 0.4 µM; under `CN1C=C/C(=C\c2cc[n+](C)c3ccccc23)c2ccccc21`, under 0.4 µM; under `O=C1NC(=O)/C(=C\c2ccc(O)cc2O)S1`, under 0.4 µM. Under `N=C1S/C(=C\c2ccc(-c3cccc(Cl)c3)o2)C(=O)N1c1nccs1` stands 0.861 µM. With `CC1=C(SCCC#N)S/C(=C2\SC(C)=C(SCCC#N)S2)S1` the figure was 2.71 µM; with `CC(=O)Nc1sc(N/N=C\c2ccco2)nc1-c1cccs1`, 10.6 µM. Take `O=C(/C=C\c1ccco1)c1ccc(NC(=O)c2ccco2)cc1`: the concentration for half-maximal inhibition (IC50) stood at 3.3 µM. The molecule `CCOc1ccc(/C=C/[N+](=O)[O-])c2ccccc12` showed an IC50 of 1.7 µM. Against the preceding molecule, the IC50 is about 1.9-fold lower.

Molecule `CCN(CC)c1ccc(/C=N/N2CCN(Cc3ccccc3)CC2)cc1` registered a 50% inhibitory concentration (IC50) of over 54 µM.

Molecule `CNC(=O)COC(=O)c1cc(-c2ccco2)nc2ccccc12` yielded an IC50 of 3.16 µM. With `CN(C)c1ccc(NC(=O)Nc2cccc(Cl)c2)cc1` the figure was under 0.4 µM; with `O=C1NC(=O)N(Cc2ccc(F)cc2)C(=O)/C1=C\c1ccc([N+](=O)[O-])s1`, 7.45 µM. With `CC(C(=O)Nc1cc([N+](=O)[O-])ccc1Cl)N1CCN(c2ccc(O)cc2)CC1` (stereo not given) the figure was over 54 µM.

For the molecule `COc1ccc(-n2cccc2/C=C2\C(=N)N3N=C(c4ccco4)SC3=NC2=O)cc1`, the concentration for half-maximal inhibition (IC50) was under 0.4 µM. Under `Cc1nc(N)sc1-c1csc(Nc2ncccn2)n1` stands 3.98 µM; under `Cc1cccc(/N=C/c2sc3ccccc3c2O)n1`, 0.759 µM. Under `Cc1cc(N(CCO)CCO)ccc1C(c1ccc(N(CCO)CCO)cc1C)c1ccccc1Cl` stands 1.13 µM; under `CC(C)(C)C1CCc2c(C(=O)NNC(=O)CCC(=O)O)csc2C1` (stereo not given), over 54 µM. Molecule `COc1ccc(C(=O)Nc2cccc(/C=C(\CCC(=O)O)c3nc4ccccc4s3)c2)cc1` yielded an IC50 of 3.94 µM.
